Assays:
[1] = system: MDA-MB231 cells; assay: Caspase 3/7 activity assay, MDA-MB231; type: cell-based, human; conditions: 2.5 μM overnight
Experimental: (§1) The apoptosis was measured by Caspase-Glo® 3/7 assay (Promega) following the manufacturer's protocol. The cells were plated in 6-well tissue culture dish (10^4 cells/well) (BD Falcon) in respective media. […] The blank reactions were prepared per direction. Equal volume of Caspase-Glo® 3/7 reagents were applied to each well. A luminometer (Sirius) was used to quantitate luminescence.

[2] = system: NCI-H460; conditions: NCI-DTP database; cited from earlier work
[3] = system: MDA-MB468 cells; assay: Colony formation assay; type: cell-based, human; conditions: 16 h treatment, then 8 days without drug
Experimental: MDA-MB468 cells were plated in 6-well plates at 200 cells/well. […] Cells were grown in fresh media without drugs for additional 8 days to form colonies, when each colony contained more than 50 cells. Plates were then stained with […] crystal violet (0.5 g Crystal violet, 25 ml methanol and 75 ml H2O). Cell number was counted.

[4] = system: NCI-H23; conditions: NCI-DTP database; cited from earlier work
[5] = biological target: T1, TopBP1/mutp53 (R249S) interaction (Homo sapiens, UniProt Q92547); assay: Co-immunoprecipitation in BT549 cells, TopBP1/mutp53; type: cell-based; conditions: 2.5 μM
T1 construct: endogenous in cells; host or cells: BT549

[6] = system: BT549 xenografts; assay: BT549 xenograft formation; type: in vivo, nude mice
Experimental: Twenty nude mice were injected s.c. with BT549 cells. […] Six out of eight DMSO-treated mice developed xenografts later.

[7] = system: MCF10A cells; assay: MTS assay, MCF10A; type: cell-based, human; conditions: co-treated with doxorubicin, Calcein AM 2.5 μM, 5 h
Experimental: Then 50 μl of MTS reagent (CellTiter 96® AQueous One Solution Cell Proliferation Assay, Promega) was added to each well, covered from light and incubated for 1 h at 37.0 incubator to develop purple color. The samples were measured at 490 nm in a plate reader (BioTek Synergy HT) against a blank 48-well plate. Each assay was done in triplicate.

[8] = system: SKOV-3 cells; assay: Caspase-Glo 3/7 assay, SKOV-3 transfected with mutp53(R273H); type: cell-based, human; conditions: cisplatin 20 μM with Calcein AM 5 μM, 20 h
Experimental: as §1

[9] = system: mutp53(R249S)/p73 interaction; assay: Anti-p73 immunoprecipitation in BT549 cells; type: cell-based, human; conditions: 2.5 μM, 5 h
Experimental: (§2) MDA-MB468 cells were lysed with TNN buffer (Liu et al. 2003). An aliquot of cell lysates was lysed with SDS lysis buffer and the rest of cell lysates were incubated with appropriate antibodies or beads at 4° C. for 3-12 h. Anti-FLAG beads (Sigma) were washed three times with TNN buffer. Immunoprecipitates were fractionated by SDS-PAGE and electro-transferred to Immobilon-P membrane (Millipore). Equal amount of protein loading was validated with Ponceau-S staining. The specific signals were detected by incubating with appropriate antibody. All primary antibodies were used at 1:1000 dilution and horseradish peroxidase (HRP)-conjugated secondary antibodies were used at 1:5000 dilution for immunoblotting. E2F1 (C-20 and KH-95), p53 (FL393), p63 (4A4 and H-129), p73 (H-79), p21 (C-19), Bax (N-20), GST (B-14), c-Myc (A14), Miz1 (H-190), Chk1 (G4), Actin (C-2) and GAPDH (6C5) antibodies were purchased from Santa Cruz. TopBP1 (mouse monoclonal) and Aid antibodies were purchased from BD Transduction Laboratories. TopBP1 (BL893, Rabbit polyclonal) antibody was purchased from Bethyl. Mouse monoclonal anti-phospho-γH2AX was purchased from Millipore. Phospho-Chk1 (Ser345) antibody was purchased from Cell signaling. FLAG (F7425) antibody was purchased from Sigma. Mouse monoclonal anti-p73 (IMG-246) was purchased from IMGENEX.

[10] = biological target: T2, TopBP1/mutp53(R273H) interaction (Homo sapiens, UniProt Q92547); assay: Co-immunoprecipitation in MDA-MB468 cells, TopBP1/mutp53; type: cell-based; conditions: 2.5 μM, 5 h
T2 construct: endogenous in cells; host or cells: MDA-MB468
Experimental: as §2

[11] = biological target: T3, TopBP1/E2F1 interaction (Homo sapiens, UniProt Q92547); assay: Co-immunoprecipitation in MDA-MB468 cells, TopBP1/E2F1; type: cell-based; conditions: 2.5 μM, 5 h
T3 construct: endogenous in cells; host or cells: MDA-MB468
Experimental: as §2

T1 sequence (Q92547 whole entry, stated change not applied): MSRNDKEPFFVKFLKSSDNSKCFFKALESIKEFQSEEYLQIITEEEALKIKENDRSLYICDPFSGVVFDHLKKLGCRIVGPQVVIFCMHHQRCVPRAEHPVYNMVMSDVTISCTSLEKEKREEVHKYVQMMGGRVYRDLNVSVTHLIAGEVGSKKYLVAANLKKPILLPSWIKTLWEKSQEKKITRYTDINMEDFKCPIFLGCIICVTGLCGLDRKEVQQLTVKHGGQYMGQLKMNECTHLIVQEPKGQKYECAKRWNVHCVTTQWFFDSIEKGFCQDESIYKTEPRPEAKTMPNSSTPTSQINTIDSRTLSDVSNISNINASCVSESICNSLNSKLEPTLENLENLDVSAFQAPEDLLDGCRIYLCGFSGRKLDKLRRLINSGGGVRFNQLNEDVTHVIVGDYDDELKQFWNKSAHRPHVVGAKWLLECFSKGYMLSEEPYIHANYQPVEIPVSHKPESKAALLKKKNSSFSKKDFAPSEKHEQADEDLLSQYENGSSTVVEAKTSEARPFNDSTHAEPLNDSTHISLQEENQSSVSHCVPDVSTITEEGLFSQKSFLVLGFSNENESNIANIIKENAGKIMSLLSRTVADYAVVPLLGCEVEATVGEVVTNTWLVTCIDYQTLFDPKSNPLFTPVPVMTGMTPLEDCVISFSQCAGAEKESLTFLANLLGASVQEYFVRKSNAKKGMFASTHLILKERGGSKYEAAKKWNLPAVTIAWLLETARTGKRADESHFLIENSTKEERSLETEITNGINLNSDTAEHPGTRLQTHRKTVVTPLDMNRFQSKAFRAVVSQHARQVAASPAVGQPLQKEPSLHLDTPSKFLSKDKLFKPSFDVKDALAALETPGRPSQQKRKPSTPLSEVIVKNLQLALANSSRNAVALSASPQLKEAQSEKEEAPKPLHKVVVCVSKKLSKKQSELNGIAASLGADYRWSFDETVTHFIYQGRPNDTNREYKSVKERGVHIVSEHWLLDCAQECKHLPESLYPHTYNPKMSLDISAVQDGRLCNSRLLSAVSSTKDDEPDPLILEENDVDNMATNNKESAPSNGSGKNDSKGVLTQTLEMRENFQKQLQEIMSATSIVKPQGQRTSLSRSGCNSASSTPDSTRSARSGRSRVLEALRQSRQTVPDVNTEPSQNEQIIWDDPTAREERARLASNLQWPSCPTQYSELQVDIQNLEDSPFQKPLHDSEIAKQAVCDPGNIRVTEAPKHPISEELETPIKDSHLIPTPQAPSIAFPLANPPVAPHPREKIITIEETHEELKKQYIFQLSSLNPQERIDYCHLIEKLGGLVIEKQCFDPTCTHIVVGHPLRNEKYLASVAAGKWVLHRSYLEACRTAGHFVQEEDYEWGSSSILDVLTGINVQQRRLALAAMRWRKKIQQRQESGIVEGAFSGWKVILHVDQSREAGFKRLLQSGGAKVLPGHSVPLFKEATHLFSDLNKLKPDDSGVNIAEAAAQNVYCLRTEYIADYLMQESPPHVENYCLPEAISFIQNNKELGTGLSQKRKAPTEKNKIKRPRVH
T3 sequence (Q92547 whole entry): as the sequence (Q92547 whole entry, stated change not applied) above
T2 sequence (Q92547 whole entry, stated change not applied): as above

SMILES: CC(=O)OCOC(=O)CN(CC(=O)OCOC(C)=O)Cc1cc2c(cc1OC(C)=O)Oc1cc(OC(C)=O)c(CN(CC(=O)OCOC(C)=O)CC(=O)OCOC(C)=O)cc1C21OC(=O)c2ccccc21 [Calcein AM, Calcein AM (acetoxymethyl ester)]
- apoptosis (caspase 3/7 activity) [1]: induced apoptosis
- GI50 [2]: < 1000 nM
- concentration at which inhibition of colony formation was apparent [3]: ≥ 0.1 µM
- GI50 [4]: < 1000 nM
- interaction between TopBP1 and mutp53 [5]: inhibited
- mice that developed tumors ([6]; 20 mg/kg i.p. every three days for three doses): none of the eight
- mice that developed tumors ([6]; 40 mg/kg i.p. every three days for three doses): none of the four
- doxorubicin sensitivity (MTS) [7]: not
- inhibition of cisplatin-induced apoptosis by overexpressed mutp53(R273H) [8]: partially rescued
- binding of p73 to mutp53(R249S) [9]: release of p73 from mutp53(R249S)
- TopBP1/mutp53 interaction at physiological levels [10]: inhibited
- TopBP1/E2F1 interaction at physiological levels [11]: inhibited

Source: patent US9636323B2, “Method of treating cancer that overexpresses TopBP1” (Baylor College of Medicine, priority 2014, dated 2017)
